Data set [1] concerns human pulmonary artery endothelial cells (hPAEC). The data set can be described thus: BrdU cell proliferation assay, 0.1% FBS, 100 pM TGF-β, hPAEC. The class given is cell-based. Conditions: hPAEC, 100 pM TGF-β, 0.1% FBS. On the procedure:
(§1) BrdU (5-bromo-2-deoxyuridine) cell proliferation assay (BrdU assay)
(§2) A 48-well plate was used, and 1.5×10^4 cells were implanted in each well. After 24 hours, the medium was changed to serum-free culture medium and synchronized for 24 hours. A 2-fold concentration of the compound in serum-free culture medium is prepared and the cells were pretreated for 1 hour. Then, the same volume of culture medium containing 20% fetal bovine serum (FBS) was added to dilute the compound. The final concentration was 10% FBS culture medium and 1 times the concentration of the compound. In the experimental group that added TGF-β, the same volume of TGF-β culture medium containing 10 ng/mL was added, with a final concentration of 5 ng/mL TGF-β and 1 times the concentration of the compound, and in the experimental group added with TGF-β, the entire process was conducted in culture medium containing 0.1% serum. Then, BrdU reagent was added about 6 hours later, and the cells were collected the next day for enzyme-linked immunosorbent assay (ELISA) analysis, the compound treatment time was about 24 hours, and the BrdU treatment time was about 18 hours.
(§3) Five compounds to be tested were screened by cell survival assay (MTT assay) and BrdU (5-bromo-2-deoxyuridine) cell proliferation assay, and the information of these compounds was listed in Table 1 below. Tables 2 and 3 respectively listed the growth inhibitions of on human pulmonary artery endothelial cells (hPAEC), human pulmonary artery smooth muscle cells (hPASMC), normal rat pulmonary artery smooth muscle cells (rPASMC, as the control group, represented by “CON”), and rat pulmonary artery smooth muscle cells (represented by “MCT”), by the five compounds to be tested under the conditions of 10% FBS, 0.1% FBS and 100 pM TGF-β.

The subject of data set [2] is TGF-β-stimulated PAI-1 promoter activity. Nature of the data set: TGF-β stimulated Pai-1 luciferase assay in MLECs-clone32 cells. The class given is cell-based. To be noted: TGF-β 50 pM, 4 hours, read-out: IC50 value of compound inhibiting TGF-β-stimulated Pai-1 luciferase activity (%). The text has this:
TGF-β Stimulated Pai-1 Luciferase Assay
MLECs-clone32 cell line was used to measure the impact of different compounds on the downstream gene, plasminogenactivator inhibitor 1 (PAI-1) performance stimulated by TGF-β. MLECs-clone32 is an expression construct that is stably transfected for the Mv1Lu cell line, and the expression construct PAI-1 Luciferase contains a truncated (PAI-1) promoter fused to the firefly luciferase reporter gene^11,12. The activity stimulated by the truncated PAI-I promoter was quantified by using a luciferase assay. The luciferase activity stimulated by TGF-β in cells without compound treatment was set as 100%, and the effects of each compound on TGF-β-stimulated PAI-I promoter activity were compared. The steps for measuring Pai-1 luciferase activity include using a 96-well plate (DMEM medium containing 10% FBS), seeding each well with 1.5×10^5 cells, and culturing in an incubator overnight. After discarding the medium the next day, cells in DMEM medium with or without the addition of test compounds were treated with recombinant TGF-β (50 pM) and allowed to react in a 37° C. incubator for 4 hours. The cell culture medium was aspirated, washed with PBS, and the activity of Pai-1 luciferase was evaluated by luciferase assay.

Data set [3] concerns monocrotaline induced pulmonary arterial hypertension rat. Nature of the data set: Monocrotaline-induced pulmonary arterial hypertension rat model, Example 3 (7-DHC vs macitentan). The class given is in vivo. Conditions: for Right ventricle pressure (RVP): 25th day after monocrotaline induction, MCT rats 28.97 mmHg; for Arterial gas analysis PaO2 and PaCO2, in words: between groups CON, MCT and treated; for Thickening of pulmonary arteries, in words: p<0.001, vs MCT rats (exceeded 65%); for Base excess (BE) value: MCT group −6, normal −2 to +2; for Average right ventricle hypertrophy ratio (RV/S+LV): MCT rats 71.64%, normal rats 26.7%. The text has this: Pulmonary arterial hypertension animal experimental model
The present disclosure utilizes injection of monocrotaline to induce symptoms of pulmonary arterial hypertension in rats to establish a pulmonary arterial hypertension animal experimental model suitable for screening test drugs.
The diagnostic method of clinical pulmonary arterial hypertension standards is right heart catheterization, which is defined as mean pulmonary arterial pressure (mPAP) greater than or equal to 20 mmHg. The diagnostic criteria for pulmonary arterial hypertension, in addition to an increase in mean pulmonary arterial pressure, need to be combined with pulmonary vascular resistance (PVR) greater than 3 Wood unit. The right ventricle pressure (RVP) and systemic mean blood pressure (mbp) in rats with pulmonary arterial hypertension were measured by Millar Model PCU200 pressure system, and the heart rate (HR) was also monitored at the same time. After measuring the hemodynamic data, the arterial blood was extracted from the carotid artery of the pulmonary arterial hypertension rat, and the Abbott blood oximeter (i-STAT) combined with Abbott's special chip cartridge (i-STAT Cartridge G3+) was used to measure arterial gas analysis data such as pH, PaO2, PaCO2, HCO3 and base excess (BE) value in quantitative whole blood samples. The normal pH value is between 7.35 and 7.45, and the pH value indicates whether the experimental animal has the condition of acidemia, alkalemia, acidosis or alkalosis. The normal value of PaO2 is between 80 and 100 mmHg, which reflects the effectiveness of gas exchange (ventilation/perfusion). The normal value of PaCO2 is between 35 and 45 (such as 38 and 42) mmHg, which can evaluate the effectiveness of alveolar ventilation. The acid produced by food, tissue decomposition, inflammation and hypoxia rely on the lungs to excrete volatile acid CO2 (short-term) and the bicarbonate (HCO3^−) produced by the kidneys (long-term) to neutralize non-volatile acids, while the normal value of bicarbonate hydrogen radical (HCO3^−) is between 22 and 26 meq/L. BE is the base excess value, its normal value ranges from −2 to +2, the negative value represents the degree of alkali ion deficiency in the blood, a negative BE value (−) that is too high indicates metabolic acidosis, and a positive value (+) that is too high is metabolic alkalosis. At the end of the experiment, the rats were sacrificed and their hearts were removed and the left and right ventricles were separated and weighed (RV)/(S)+(LV).
Monocrotaline was utilized to induce pulmonary arterial hypertension rat animal model, intraperitoneal injection (IP) TGF-β receptor inhibitor 7-DHC (039) and oral administration of macitentan (soluble in methylcellulose), 7-DHC (039) was divided into two groups according to the dosage: 10 mg/kg or 20 mg/kg, and the dosage of macitentan group was 30 mg/kg.

In data set [4] the test system is human pulmonary artery endothelial cells (hPAEC). The data set can be described thus: BrdU cell proliferation assay, 10% FBS, hPAEC. The class given is cell-based. How it is done: as §1, §2, §3

Broadly, the IC50 is the concentration that inhibits the measured activity by half.

Take `CC(C)CCCC(C)C1CCC2C3=CC=C4CC(O)CCC4(C)C3CCC21C` (stereo not shown) [Code 039, 7-DHC]: the EC50 in data set [1] (Homo sapiens, Endothelial cell, read-out: EC50) amounted to 23 µM. Moreover, in data set [1] (25 μM, FIG. 3), the “Inhibition of cell growth (in words)” value was “inhibition of cell growth”. Further, the half-inhibitory concentration (IC50) in data set [2] stood at 15.5 µM. Also, in data set [3] (10 mg/kg IP), the “Right ventricle pressure (RVP)” value is reported as 17.61 mmHg; the “Arterial gas analysis PaO2 and PaCO2, in words” value is given as “no significant difference”; the “Thickening of pulmonary arteries, in words” value is “significantly reduced”; the “Base excess (BE) value” is listed as −3. In data set [3] (10 mg/kg IP), the “Average right ventricle hypertrophy ratio (RV/S+LV)” value is on record as 53.96%. In data set [3] (20 mg/kg IP), the “Activity of the rats” value was “did not affect”, the Survival rate was 100%, the Weight of rats entry was “decreased significantly” and the “Right ventricle pressure (RVP)” value is 19.96 mmHg. For the same molecule, in data set [3] (20 mg/kg IP), the “Arterial gas analysis PaO2 and PaCO2, in words” value is “no significant difference”; the “Thickening of pulmonary arteries, in words” value was “significantly reduced”; the “Base excess (BE) value” is given as −1.4; the “Average right ventricle hypertrophy ratio (RV/S+LV)” value stood at 62.97%. For the same molecule, the “Systemic average blood pressure and heartbeat, in words” value in data set [3] (10 or 20 mg/kg IP) is recorded as “did not significantly reduce”. Besides, in data set [4] (Homo sapiens, Endothelial cell, read-out: EC50 (concentration for 50% of maximal effect)), the EC50 is 47 µM. Besides, the “Inhibition of cell growth (in words)” value in data set [4] (hPAEC, 10% FBS, FIG. 2) is reported as “inhibition of cell growth can also be observed”.

The values above are taken from patent US20240408112A1, “METHOD FOR PREVENTING OR TREATING PULMONARY ARTERIAL HYPERTENSION BY USING 7-DEHYDROCHOLESTEROLS OR SALTS, OXIDES, METABOLITES, OR DERIVATIVES THEREOF” (EXCELSIOR PHARMATECH LABS., priority 2023, published 2024).
